{"source": "patent US4156730A", "about": "“Pharmaceutically active compounds, preparation thereof, intermediates useful in such preparation and compositions containing the compounds” (Beecham Group Limited, priority 1976, dated 1979)", "tested_on": "5-hydroxytryptamine induced bronchoconstriction", "test": "inhibition of 5-hydroxytryptamine induced bronchoconstriction (Konzett-Rossler preparation)", "format": "in vivo", "conditions": "Cavia porcellus, iv; intravenously; anaesthetised, artificially respired guinea pig; read-out: IC50 for inhibition of bronchoconstriction", "description": "The compounds were examined for their ability to inhibit 5-hydroxytryptamine induced bronchoconstriction in the anaesthetised, artifically respired guinea pig (Konzett-Rossler preparation - ref: H. Konzett and R. Rossler, 1940, Arch. exp. Path. Pharmak., 195, 71).", "data": [{"smiles": "CCCCC(C)(O)CCCCN1C(=O)CC(=O)C1CCCCCCC(=O)OC", "note": "(stereo not shown) [Compound 30, 2-(6'-Methoxycarbonyl-n-hexyl)-1-(5\"-hydroxy-5\"-methyl-n-nonyl)-pyrrolidin-3,5-dione]", "values": [{"measurement": "ED50", "value": 0.012, "unit": "mg/kg"}]}]}
